Patent publication US20110143332A1, “METHOD FOR IDENTIFYING MICROORGANISM OR DETECTING ITS MORPHOLOGY ALTERATION USING SURFACE ENHANCED RAMAN SCATTERING (SERS)” (NATIONAL YANG-MING UNIVERSITY, priority 2007, published 2011)
“Also recorded” adds a separate entry of the source. Bridge positions count the residues as written; N and C are the ends. Square brackets hold non-standard residues; d marks the D form. Peptide text beside a SMILES is read from it. * marks the point of attachment. Ileψ(thiazoline)Cys = CC[C@H](C)[C@H](N)C1=N[C@H](C(=O)*)CS1; dOrn = NCCC[C@@H](N)C(=O)O

What was measured:
Type in all cases: cell-based
[1] = system: Enterococcus faecalis 7-18 uE; assay: SERS monitoring of antibiotic effect on drug-resistant strain; conditions: 0.5% agarose gel, FIG. 11
Protocol: (§1) Fourteen laboratory strains, Escherichia coli JM109, Escherichia coli JM109(mutant), Enterococcus faecalis 7-18 uE, Enterococcus faecium 13631, Staphylococcus aureus 13649, Staphylococcus aureus 13615, Streptococcus agalactiae 13640, Enterococcus faecalis 13641 C2, Klebsiella pneumoniae 13641 C1, Proteus mirabilis 13621 C1, Enterobacter cloacae 13457 C2, E. coli 13594 C1, E. coli 13650, Escherichia coli JM109(mutant) and E. coli 13634 were analyzed. Bacteria were grown in 5 mL of LB broth (˜6 h) to OD600=˜0.5, washed five times with PBS, and resuspended in 0.1 ml of PBS. About 3˜5 μl of the bacteria suspension is placed on the Ag/AAO substrate. 0.5% agarose gel was used to mount the bacterial samples for inhibiting the movement of bacteria. Five antibiotics: ampicillin, bacitracin, vancomycin, tetracycline and gentamycin were used in the examples. The former three could interfere with construction of the bacterial cell wall. The last two inhibited the protein synthesis in bacteria via disrupting the binding between tRNA and ribosome.
(§2) A Jobin Yvon Raman microscope (model LabRAM HR800) was used to observe the scattering excited by a 632.8 nm He—Ne laser. The spectral data acquisition time was in the 1-10 s range and the SERS spectra were obtained with a 100× microscope objective for excitation/collection. […]

Escherichia coli JM109 = assay: SERS monitoring of antibiotic effect on bacteria mounted on Ag/AAO substrate; conditions: 10 μg/ml ampicillin for 35 min; antibiotic susceptible strain; 0.5% agarose gel; FIG. 5
Protocol: as §1, §2

[2] = system: Escherichia coli JM109(mutant); assay: as above; conditions: 25 μg/ml bacitracin for 48 min; antibiotic susceptible strain; 0.5% agarose gel; FIG. 6
Protocol: as §1, §2

E. coli 13650 = assay: as above; conditions: 25 μg/ml gentamycin for 37 min; antibiotic susceptible strain; 0.5% agarose gel; FIG. 10
Protocol: as §1, §2

## CC1(C)S[C@@H]2[C@H](NC(=O)[C@H](N)c3ccccc3)C(=O)N2[C@H]1C(=O)O [ampicillin]
[1]; 10 μg/ml ampicillin for 35 min
  change of SERS spectrum (in words): No spectral changes were observed; also recorded: no changes in the spectra were observed
Escherichia coli JM109
  new peak in SERS spectrum compared with no treatment: 700 cm⁻¹

## CC[C@H](C)[C@H](N)C1=N[C@H](C(=O)N[C@@H](CC(C)C)C(=O)N[C@H](CCC(=O)O)C(=O)N[C@H](C(=O)N[C@H]2CCCCNC(=O)[C@H](CC(N)=O)NC(=O)[C@@H](CC(=O)O)NC(=O)[C@H](Cc3cnc[nH]3)NC(=O)[C@@H](Cc3ccccc3)NC(=O)[C@H]([C@@H](C)CC)NC(=O)[C@@H](CCCN)NC2=O)[C@@H](C)CC)CS1 [bacitracin] ({Ileψ(thiazoline)Cys}-L[dE]IK[dOrn]I[dF]H[dD]N; lactam 4-C)
[1]; 25 μg/ml bacitracin for 48 min
  change of SERS spectrum (in words): No spectral changes were observed; also recorded: no changes in the spectra were observed
[2]
  new peak in SERS spectrum compared with no treatment: 700 cm⁻¹

## gentamycin
E. coli 13650
  new peaks in SERS spectrum: 418 cm⁻¹
